# Data published in ChEMBL document CHEMBL3400121, “Design and synthesis of novel 1,2,3-triazole-pyrimidine-urea hybrids as potential anticancer agents” (Bioorg Med Chem Lett, 2015).
# Calls of active or inactive are those of the source. The calls are words filed in the database; no cut-off is given here.
# Tests used:
# MGC-803 [1] = experiment: Induction of apoptosis in human MGC803 cells assessed as viable cells at 4 uM after 12 to 24 hrs using annexin V-FITC/PI double staining by flow cytometry (reference value: 90.4 %); type: functional; settings: read-out: Activity
# MGC-803 [2] = experiment: Induction of apoptosis in human MGC803 cells assessed as early apoptotic cells at 4 uM after 12 to 24 hrs using annexin V-FITC/PI double staining by flow cytometry (reference value: 1.6 %); type: functional
# MGC-803 [3] = experiment: Induction of apoptosis in human MGC803 cells assessed as late apoptotic cells at 4 uM after 12 to 24 hrs using annexin V-FITC/PI double staining by flow cytometry (reference value: 1.2 %); type: functional
# MGC-803 [4] = experiment: Induction of apoptosis in human MGC803 cells assessed as necrotic cells at 4 uM after 12 to 24 hrs using annexin V-FITC/PI double staining by flow cytometry (reference value: 6.8 %); type: functional
# MGC-803 [5] = experiment: Induction of apoptosis in human MGC803 cells assessed as total apoptotic cells at 1 uM after 12 to 24 hrs using annexin V-FITC/PI double staining by flow cytometry (reference value: 2.8 %); type: functional
# MGC-803 [6] = experiment: Induction of apoptosis in human MGC803 cells assessed as total apoptotic cells at 2 uM after 12 to 24 hrs using annexin V-FITC/PI double staining by flow cytometry (reference value: 2.8 %); type: functional
# MGC-803 [7] = experiment: Induction of apoptosis in human MGC803 cells assessed as total apoptotic cells at 4 uM after 12 to 24 hrs using annexin V-FITC/PI double staining by flow cytometry (reference value: 2.8 %); type: functional
# MGC-803 [8] = experiment: Induction of apoptosis in human MGC803 cells after 12 to 24 hrs using annexin V-FITC/PI double staining by flow cytometry; type: functional, cell-based
# [9] = Anticancer activity against human EC109 cells assessed as inhibition of proliferation after 72 hrs by MTT assay; type: functional, cell-based; settings: ECa-109, 72 h
# MCF7 = experiment: Anticancer activity against human MCF7 cells assessed as inhibition of proliferation after 72 hrs by MTT assay; type: functional, cell-based; settings: MCF7, 72 h
# MGC-803 [10] = experiment: Anticancer activity against human MGC803 cells assessed as inhibition of proliferation after 72 hrs by MTT assay; type: functional, cell-based; settings: MGC-803, 72 h
# [11] = Anticancer activity against mouse B16F10 cells assessed as inhibition of proliferation after 72 hrs by MTT assay; type: functional, cell-based; settings: B16-F10, 72 h
# [12] = Cytotoxicity against human GES-1 cells assessed as inhibition of proliferation after 72 hrs by MTT assay; type: cell-based; settings: GES1, 72 h
# MGC-803 [13] = experiment: Induction of apoptosis in human MGC803 cells assessed as increase in p53 level at 2 to 4 uM after 48 hrs by Western blot analysis; type: functional, cell-based
# MGC-803 [14] = experiment: Induction of apoptosis in human MGC803 cells assessed as decrease in pro-caspase 3 level at 2 to 4 uM after 48 hrs by Western blot analysis; type: functional, cell-based
# MGC-803 [15] = experiment: Induction of apoptosis in human MGC803 cells assessed as cell rounding at 1 to 4 uM after 24 hrs using Hoechst 33258 staining by fluorescence microscopy; type: functional, cell-based
# MGC-803 [16] = experiment: Induction of apoptosis in human MGC803 cells assessed as chromatin shrinkage at 1 to 4 uM after 24 hrs using Hoechst 33258 staining by fluorescence microscopy; type: functional, cell-based
# MGC-803 [17] = experiment: Induction of apoptosis in human MGC803 cells assessed as formation of apoptotic bodies at 1 to 4 uM after 24 hrs using Hoechst 33258 staining by fluorescence microscopy; type: functional, cell-based
# MGC-803 [18] = experiment: Induction of apoptosis in human MGC803 cells assessed as viable cells at 1 uM after 12 to 24 hrs using annexin V-FITC/PI double staining by flow cytometry (reference value: 90.4 %); type: functional; settings: read-out: Activity
# MGC-803 [19] = experiment: Induction of apoptosis in human MGC803 cells assessed as early apoptotic cells at 1 uM after 12 to 24 hrs using annexin V-FITC/PI double staining by flow cytometry (reference value: 1.6 %); type: functional
# MGC-803 [20] = experiment: Induction of apoptosis in human MGC803 cells assessed as late apoptotic cells at 1 uM after 12 to 24 hrs using annexin V-FITC/PI double staining by flow cytometry (reference value: 1.2 %); type: functional
# MGC-803 [21] = experiment: Induction of apoptosis in human MGC803 cells assessed as necrotic cells at 1 uM after 12 to 24 hrs using annexin V-FITC/PI double staining by flow cytometry (reference value: 6.8 %); type: functional
# MGC-803 [22] = experiment: Induction of apoptosis in human MGC803 cells assessed as viable cells at 2 uM after 12 to 24 hrs using annexin V-FITC/PI double staining by flow cytometry (reference value: 90.4 %); type: functional; settings: read-out: Activity
# MGC-803 [23] = experiment: Induction of apoptosis in human MGC803 cells assessed as early apoptotic cells at 2 uM after 12 to 24 hrs using annexin V-FITC/PI double staining by flow cytometry (reference value: 1.6 %); type: functional
# MGC-803 [24] = experiment: Induction of apoptosis in human MGC803 cells assessed as late apoptotic cells at 2 uM after 12 to 24 hrs using annexin V-FITC/PI double staining by flow cytometry (reference value: 1.2 %); type: functional
# MGC-803 [25] = experiment: Induction of apoptosis in human MGC803 cells assessed as necrotic cells at 2 uM after 12 to 24 hrs using annexin V-FITC/PI double staining by flow cytometry (reference value: 6.8 %); type: functional
compound,measurement,setting,value
COc1cc(-c2nc(SCc3cn(CC(=O)NC(=O)Nc4ccccn4)nn3)nc(Nc3ccc(C)cc3)c2C#N)cc(OC)c1OC,viability at 4 µM,MGC-803 [1],35.2%
same,Activity,MGC-803 [2],52.7%
same,Activity,MGC-803 [3],10.3%
same,Activity,MGC-803 [4],1.8%
same,Activity,MGC-803 [5],17.2%
same,Activity,MGC-803 [6],32.5%
same,Activity,MGC-803 [7],63%
same,Activity,MGC-803 [8],Dose-dependent effect
same,IC50,[9],21.3 µM
same,IC50,MCF7,21 µM
same,IC50,MGC-803 [10],7.03 µM
same,IC50,[11],0.032 µM
same,IC50,[12],> 64 µM
same,Activity,MGC-803 [13],Active
same,Activity,MGC-803 [14],Active
same,Activity,MGC-803 [15],Active
same,Activity,MGC-803 [16],Active
same,Activity,MGC-803 [17],Active
same,viability at 1 µM,MGC-803 [18],80.3%
same,Activity,MGC-803 [19],13.1%
same,Activity,MGC-803 [20],4.1%
same,Activity,MGC-803 [21],2.5%
same,viability at 2 µM,MGC-803 [22],65.8%
same,Activity,MGC-803 [23],26.1%
same,Activity,MGC-803 [24],6.4%
same,Activity,MGC-803 [25],1.7%
